Measured values taken from US20020111274A1, “1-alkyl-3-[1-(substituted phenyl) benzotriazol-6-yl] uracils” (BASF Aktiengesellschaft, priority 2000, published 2002).

Experiments:
[1] = test system: ZEAMX Corn, Field; assay: Preemergence herbicidal evaluation, ZEAMX; type: in vivo, Zea mays, L. (Sammel-Bezeichnung); parameters: scale not given here; settings: preemergence
How it was run: (§1)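 Visual ratings were taken four to five weeks after application. Before that, cups sown with seed in potting soil received a spray of compound dissolved in aqueous acetone, equivalent to about 0.013 to 0.800 kg/ha, and stood on greenhouse benches under conventional care.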

[2] = test system: IPOHE Morningglory, Ivyleaf; assay: Postemergence herbicidal evaluation, IPOHE; type: in vivo, Ipomoea hederacea, (L.) Jacq.; parameters: scale not given here; settings: postemergence spray, rated about two-three weeks after treatment
How it was run: (§2)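 Visual injury rating ~2–3 wk post-spray; replicate tests averaged. Two-week-old seedlings; foliar spray at 40 psi; 0.006–0.400 kg ai/ha in 80/20 acetone/water + 1.0% methylated seed oil.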

[3] = test system: SETVI Foxtail, Green; assay: Preemergence herbicidal evaluation, SETVI; type: in vivo, Setaria viridis, (L.) Beau; parameters: scale not given here; settings: preemergence
How it was run: as §1

[4] = test system: IPOHE Morningglory, Ivyleaf; assay: Preemergence herbicidal evaluation, IPOHE; type: in vivo, Ipomoea hederacea, (L.) Jacq.; parameters: scale not given here; settings: preemergence
How it was run: as §1

[5] = test system: ABUTH Velvetleaf; assay: Preemergence herbicidal evaluation, ABUTH; type: in vivo, Abutilon theophrasti, Medic.; parameters: scale not given here; settings: preemergence
How it was run: as §1

[6] = test system: TRZAWR Wheat, Winter, cv Riband; assay: Preemergence herbicidal evaluation, TRZAWR; type: in vivo, Triticum aestivum; parameters: scale not given here; settings: preemergence, rate 0.062 kg/ha
How it was run: as §1

[7] = test system: TRZAWR Wheat, Winter, cv Riband; assay: Postemergence herbicidal evaluation, TRZAWR; type: in vivo, Triticum aestivum; parameters: scale not given here; settings: postemergence spray, rated about two-three weeks after treatment
How it was run: as §2

[8] = test system: AMBEL Ragweed, Common; assay: Postemergence herbicidal evaluation, AMBEL; type: in vivo, Ambrosia artemisifolia, L.; parameters: scale not given here; settings: postemergence spray, rated about two-three weeks after treatment
How it was run: as §2

[9] = test system: ECHOG Barnyardgrass; assay: Preemergence herbicidal evaluation, ECHOG; type: in vivo, Echinochloa crus-galli, (L.) Beau; parameters: scale not given here; settings: preemergence
How it was run: as §1

[10] = test system: GALAP Galium; assay: Postemergence herbicidal evaluation, GALAP; type: in vivo, Galium aparine; parameters: scale not given here; settings: postemergence spray, rated about two-three weeks after treatment
How it was run: as §2

[11] = test system: GLXMAW Soybean, Williams; assay: Postemergence herbicidal evaluation, GLXMAW; type: in vivo, Glycine max, (L.) Merr. cv Williams; parameters: scale not given here; settings: postemergence spray, rated about two-three weeks after treatment
How it was run: as §2

[12] = test system: ORYSAT Rice, Tebonnet; assay: Postemergence herbicidal evaluation, ORYSAT; type: in vivo, Oryza sativa, (L.); parameters: scale not given here; settings: postemergence spray, rated about two-three weeks after treatment
How it was run: as §2

[13] = test system: CHEAL Lambsquarters, Common; assay: Preemergence herbicidal evaluation, CHEAL; type: in vivo, Chenopodium album, L.; parameters: scale not given here; settings: preemergence
How it was run: as §1

[14] = test system: ECHOG Barnyardgrass; assay: Postemergence herbicidal evaluation, ECHOG; type: in vivo, Echinochloa crus-galli, (L.) Beau; parameters: scale not given here; settings: postemergence spray, rated about two-three weeks after treatment
How it was run: as §2

[15] = test system: ABUTH Velvetleaf; assay: Postemergence herbicidal evaluation, ABUTH; type: in vivo, Abutilon theophrasti, Medic.; parameters: scale not given here; settings: postemergence spray, rated about two-three weeks after treatment
How it was run: as §2

[16] = test system: GALAP Galium; assay: Preemergence herbicidal evaluation, GALAP; type: in vivo, Galium aparine; parameters: scale not given here; settings: preemergence
How it was run: as §1

[17] = test system: ORYSAT Rice, Tebonnet; assay: Preemergence herbicidal evaluation, ORYSAT; type: in vivo, Oryza sativa, (L.); parameters: scale not given here; settings: preemergence
How it was run: as §1

[18] = test system: CHEAL Lambsquarters, Common; assay: Postemergence herbicidal evaluation, CHEAL; type: in vivo, Chenopodium album, L.; parameters: scale not given here; settings: postemergence spray, rated about two-three weeks after treatment
How it was run: as §2

[19] = test system: AMBEL Ragweed, Common; assay: Preemergence herbicidal evaluation, AMBEL; type: in vivo, Ambrosia artemisifolia, L.; parameters: scale not given here; settings: preemergence
How it was run: as §1

[20] = test system: CASOB Sicklepod; assay: Postemergence herbicidal evaluation, CASOB; type: in vivo, Cassia obtusifolia, L.; parameters: scale not given here; settings: postemergence spray, rated about two-three weeks after treatment
How it was run: as §2

[21] = test system: GLXMAW Soybean, Williams; assay: Preemergence herbicidal evaluation, GLXMAW; type: in vivo, Glycine max, (L.) Merr. cv Williams; parameters: scale not given here; settings: preemergence
How it was run: as §1

[22] = test system: CASOB Sicklepod; assay: Preemergence herbicidal evaluation, CASOB; type: in vivo, Cassia obtusifolia, L.; parameters: scale not given here; settings: preemergence
How it was run: as §1

[23] = test system: SETVI Foxtail, Green; assay: Postemergence herbicidal evaluation, SETVI; type: in vivo, Setaria viridis, (L.) Beau; parameters: scale not given here; settings: postemergence spray, rated about two-three weeks after treatment
How it was run: as §2

[24] = test system: ZEAMX Corn, Field; assay: Postemergence herbicidal evaluation, ZEAMX; type: in vivo, Zea mays, L. (Sammel-Bezeichnung); parameters: scale not given here; settings: postemergence spray, rated about two-three weeks after treatment
How it was run: as §2

CCc1ccc(-n2nnc3cc(F)c(-n4c(=O)cc(C(F)(F)F)n(C)c4=O)cc32)cc1 [Example 17, 3-[1-(4-ethylphenyl)-5-fluoro-1H-1,2,3-benzotriazol-6-yl]-1-methyl-6-(trifluoromethyl)-2,4(1H,3H)-pyrimidinedione]
ZEAMX herbicidal rating ([1]; rate 0.016 kg/ha): 1.0 | ZEAMX herbicidal rating ([1]; rate 0.032 kg/ha): 3.7 | ZEAMX herbicidal rating ([1]; rate 0.062 kg/ha): 4.0 | ZEAMX herbicidal rating ([1]; rate 0.125 kg/ha): 6.7 | Postemergence herbicidal rating IPOHE ([2]; 0.008 kg/ha): 9.0 | Postemergence herbicidal rating IPOHE ([2]; 0.016 kg/ha): 9.0 | Postemergence herbicidal rating IPOHE ([2]; 0.032 kg/ha): 9.0 | Postemergence herbicidal rating IPOHE ([2]; 0.062 kg/ha): 9.0 | SETVI herbicidal rating ([3]; rate 0.016 kg/ha): 6.5 | SETVI herbicidal rating ([3]; rate 0.032 kg/ha): 7.3 | SETVI herbicidal rating ([3]; rate 0.062 kg/ha): 9.0 | SETVI herbicidal rating ([3]; rate 0.125 kg/ha): 9.0 | IPOHE herbicidal rating ([4]; rate 0.016 kg/ha): 0.0 | IPOHE herbicidal rating ([4]; rate 0.032 kg/ha): 3.3 | IPOHE herbicidal rating ([4]; rate 0.062 kg/ha): 6.0 | IPOHE herbicidal rating ([4]; rate 0.125 kg/ha): 9.0 | ABUTH herbicidal rating ([5]; rate 0.016 kg/ha): 9.0 | ABUTH herbicidal rating ([5]; rate 0.032 kg/ha): 7.0 | ABUTH herbicidal rating ([5]; rate 0.062 kg/ha): 9.0 | ABUTH herbicidal rating ([5]; rate 0.125 kg/ha): 9.0 | TRZAWR herbicidal rating [6]: 3.0 | Postemergence herbicidal rating TRZAWR ([7]; 0.008 kg/ha): 3.5 | Postemergence herbicidal rating TRZAWR ([7]; 0.016 kg/ha): 3.5 | Postemergence herbicidal rating TRZAWR ([7]; 0.032 kg/ha): 4.0 | Postemergence herbicidal rating TRZAWR ([7]; 0.062 kg/ha): 5.0 | Postemergence herbicidal rating AMBEL ([8]; 0.008 kg/ha): 5.0 | Postemergence herbicidal rating AMBEL ([8]; 0.016 kg/ha): 6.0 | Postemergence herbicidal rating AMBEL ([8]; 0.032 kg/ha): 8.0 | Postemergence herbicidal rating AMBEL ([8]; 0.062 kg/ha): 9.0 | ECHCG herbicidal rating ([9]; rate 0.016 kg/ha): 0.0 | ECHCG herbicidal rating ([9]; rate 0.032 kg/ha): 1.7 | ECHCG herbicidal rating ([9]; rate 0.062 kg/ha): 6.3 | ECHCG herbicidal rating ([9]; rate 0.125 kg/ha): 8.3 | Postemergence herbicidal rating GALAP ([10]; 0.008 kg/ha): 2.0 | Postemergence herbicidal rating GALAP ([10]; 0.016 kg/ha): 4.0 | Postemergence herbicidal rating GALAP ([10]; 0.032 kg/ha): 4.0 | Postemergence herbicidal rating GALAP ([10]; 0.062 kg/ha): 7.0 | Postemergence herbicidal rating GLXMAW ([11]; 0.008 kg/ha): 5.5 | Postemergence herbicidal rating GLXMAW ([11]; 0.016 kg/ha): 5.5 | Postemergence herbicidal rating GLXMAW ([11]; 0.032 kg/ha): 5.5 | Postemergence herbicidal rating GLXMAW ([11]; 0.062 kg/ha): 7.0 | Postemergence herbicidal rating ORYSAT ([12]; 0.008 kg/ha): 3.0 | Postemergence herbicidal rating ORYSAT ([12]; 0.016 kg/ha): 3.0 | Postemergence herbicidal rating ORYSAT ([12]; 0.032 kg/ha): 3.5 | Postemergence herbicidal rating ORYSAT ([12]; 0.062 kg/ha): 4.0 | CHEAL herbicidal rating ([13]; rate 0.016 kg/ha): 9.0 | CHEAL herbicidal rating ([13]; rate 0.032 kg/ha): 9.0 | CHEAL herbicidal rating ([13]; rate 0.062 kg/ha): 9.0 | CHEAL herbicidal rating ([13]; rate 0.125 kg/ha): 9.0 | Postemergence herbicidal rating ECHCG ([14]; 0.008 kg/ha): 0.0 | Postemergence herbicidal rating ECHCG ([14]; 0.016 kg/ha): 0.0 | Postemergence herbicidal rating ECHCG ([14]; 0.032 kg/ha): 1.0 | Postemergence herbicidal rating ECHCG ([14]; 0.062 kg/ha): 5.0 | Postemergence herbicidal rating ABUTH ([15]; 0.008 kg/ha): 9.0 | Postemergence herbicidal rating ABUTH ([15]; 0.016 kg/ha): 9.0 | Postemergence herbicidal rating ABUTH ([15]; 0.032 kg/ha): 9.0 | Postemergence herbicidal rating ABUTH ([15]; 0.062 kg/ha): 9.0 | GALAP herbicidal rating ([16]; rate 0.016 kg/ha): 0.0 | GALAP herbicidal rating ([16]; rate 0.032 kg/ha): 0.0 | GALAP herbicidal rating ([16]; rate 0.062 kg/ha): 1.0 | GALAP herbicidal rating ([16]; rate 0.125 kg/ha): 1.0 | ORYSAT herbicidal rating ([17]; rate 0.016 kg/ha): 1.0 | ORYSAT herbicidal rating ([17]; rate 0.032 kg/ha): 0.5 | ORYSAT herbicidal rating ([17]; rate 0.062 kg/ha): 4.0 | ORYSAT herbicidal rating ([17]; rate 0.125 kg/ha): 4.7 | Postemergence herbicidal rating CHEAL ([18]; 0.008 kg/ha): 9.0 | Postemergence herbicidal rating CHEAL ([18]; 0.016 kg/ha): 6.0 | Postemergence herbicidal rating CHEAL ([18]; 0.032 kg/ha): 7.0 | Postemergence herbicidal rating CHEAL ([18]; 0.062 kg/ha): 9.0 | AMBEL herbicidal rating ([19]; rate 0.016 kg/ha): 0.0 | AMBEL herbicidal rating ([19]; rate 0.032 kg/ha): 3.3 | AMBEL herbicidal rating ([19]; rate 0.062 kg/ha): 6.7 | AMBEL herbicidal rating ([19]; rate 0.125 kg/ha): 8.3 | Postemergence herbicidal rating CASOB ([20]; 0.008 kg/ha): 1.0 | Postemergence herbicidal rating CASOB ([20]; 0.016 kg/ha): 3.0 | Postemergence herbicidal rating CASOB ([20]; 0.032 kg/ha): 5.0 | Postemergence herbicidal rating CASOB ([20]; 0.062 kg/ha): 6.0 | melting point: 189 to 192 °C | GLXMAW herbicidal rating ([21]; rate 0.016 kg/ha): 1.5 | GLXMAW herbicidal rating ([21]; rate 0.032 kg/ha): 1.7 | GLXMAW herbicidal rating ([21]; rate 0.062 kg/ha): 3.0 | GLXMAW herbicidal rating ([21]; rate 0.125 kg/ha): 3.0 | CASOB herbicidal rating ([22]; rate 0.016 kg/ha): 0.0 | CASOB herbicidal rating ([22]; rate 0.032 kg/ha): 1.3 | CASOB herbicidal rating ([22]; rate 0.062 kg/ha): 3.3 | CASOB herbicidal rating ([22]; rate 0.125 kg/ha): 2.3 | Postemergence herbicidal rating SETVI ([23]; 0.008 kg/ha): 1.0 | Postemergence herbicidal rating SETVI ([23]; 0.016 kg/ha): 1.0 | Postemergence herbicidal rating SETVI ([23]; 0.032 kg/ha): 3.0 | Postemergence herbicidal rating SETVI ([23]; 0.062 kg/ha): 8.0 | Postemergence herbicidal rating ZEAMX ([24]; 0.008 kg/ha): 5.0 | Postemergence herbicidal rating ZEAMX ([24]; 0.016 kg/ha): 5.5 | Postemergence herbicidal rating ZEAMX ([24]; 0.032 kg/ha): 5.5 | Postemergence herbicidal rating ZEAMX ([24]; 0.062 kg/ha): 5.5
